This note sets out measurements from ChEMBL document CHEMBL4152231, “Identification of novel 2-benzyl-1-indanone analogs as interleukin-5 inhibitors” (Eur J Med Chem, 2018).

The target of the assay is T1, Interleukin-5 (Mus musculus) (UniProt P04401).
T1 sequence (whole entry): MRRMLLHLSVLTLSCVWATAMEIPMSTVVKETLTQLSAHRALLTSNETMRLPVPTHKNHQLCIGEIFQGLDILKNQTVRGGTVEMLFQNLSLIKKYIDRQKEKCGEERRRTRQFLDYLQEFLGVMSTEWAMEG
Description: Inhibition of IL-5 in mouse Y16 cells assessed as reduction in cell proliferation at 30 uM after 48 hrs by WST-1 assay relative to control. The assay is classed as cell-based.

In general, inhibition refers to the share of the control response that was lost under treatment. On to `COc1ccc(COc2cccc3c2C(=O)/C(=C/c2ccc(C)cc2)C3)cc1`, for which the inhibition was determined as 17%. As to `O=C1c2c(cccc2OCCC2CCCCC2)CC1Cc1ccc(O)cc1` (stereo unspecified), the inhibition turned out to be 78%. Turning to `O=C1c2c(O)cccc2CC1Cc1ccc(O)cc1` (stereo unspecified), the inhibition is 30%. Turning to `COc1ccc(/C=C2\Cc3cccc(OCc4ccc(OC)cc4)c3C2=O)cc1`, the inhibition stood at 6%.

With `O=C1c2c(cccc2OCCc2ccccc2)CC1Cc1ccccc1O` (stereo unspecified), the inhibition was 47%. `O=C1c2c(cccc2OCC2CCCCC2)CC1Cc1ccc(Cl)cc1` (stereo unspecified): the inhibition came out at 70%.

With `O=C1/C(=C/c2ccc(O)cc2)Cc2cccc(OCc3ccc([N+](=O)[O-])cc3)c21`, the inhibition is 32%.

As for `COc1ccc(COc2cccc3c2C(=O)/C(=C/c2ccc(O)cc2)C3)cc1`, the inhibition came to 0%. Take `O=C1c2c(cccc2OCC2CCCCC2)CC1Cc1ccccc1O` (stereo unspecified): the inhibition was 13%.

`COc1ccc(CC2Cc3cccc(OCC4CCCCC4)c3C2=O)cc1` (stereo unspecified): the inhibition stood at 44%. As to `COc1ccc(/C=C2\Cc3cccc(OCC4CCCCC4)c3C2=O)cc1`, the inhibition was found to be 5.6%. The result for `O=c1c(Cc2ccc(O)cc2)coc2cccc(OCC3CCCCC3)c12` reads 96%. `COc1ccc(/C=C2\Cc3cccc(O)c3C2=O)cc1`: the inhibition was found to be 25%. The result for `Cc1ccc(CC2Cc3cccc(OCC4CCCCC4)c3C2=O)cc1` (stereo unspecified) reads 68%; that for `O=C1c2c(cccc2OCC2CCCCC2)CC1Cc1cccc(O)c1` (stereo unspecified), 95%. Take `O=C1c2c(cccc2OCC2CCCCC2)CC1Cc1ccc(O)cc1` (stereo unspecified): the inhibition was 100%. The figure for `O=C1c2c(cccc2OCc2ccccc2)CC1Cc1ccc(O)cc1` (stereo unspecified) is 70%. The figure for `O=C1c2c(cccc2OCCc2ccccc2)CC1Cc1cccc(O)c1` (stereo unspecified) is 60.5%. The result for `COc1ccc(COc2cccc3c2C(=O)/C(=C/c2ccc(Cl)cc2)C3)cc1` reads 29%; that for `COCOc1ccc(CC2Cc3cccc(OCC4CCCCC4)c3C2=O)cc1` (stereo unspecified), 90%; that for `COc1ccc(COc2cccc3c2C(=O)/C(=C/c2ccccc2)C3)cc1`, 5%.

Regarding `COCOc1ccc(/C=C2\Cc3cccc(OCC4CCCCC4)c3C2=O)cc1`, the inhibition was 23.5%. Consider `O=C1/C(=C/c2ccc(O)cc2)Cc2cccc(OCC3CCCCC3)c21`, for which the inhibition was found to be 47%.

Turning to `O=C1/C(=C/c2ccc(O)cc2)Cc2cccc(O)c21`, the inhibition came out at 35%.

For `O=C1/C(=C/c2ccccc2)Cc2cccc(O)c21`, the inhibition worked out at 40%.

For the compound `O=C1c2c(cccc2OCCc2ccccc2)CC1Cc1ccc(O)cc1` (stereo unspecified), the inhibition was 59%.
